Like-named read-outs stand apart in the source and are kept apart here. Strand notation (5' to 3'): a small letter for the sugar, then the base; units joined by * are phosphorothioate-linked, units joined directly phosphodiester-linked; [ ] holds rarer units or linkages, { } end groups; capitals alone tell only the bases. e = 2'-O-(2-methoxyethyl) (MOE); [5mC] = 5-methylcytosine; d = 2'-deoxy (DNA)
What was measured:
stage IIIB or IV NSCLC = assay: Phase 1-2 study of weekly custirsen plus a gemcitabine/platinum-based regimen: survival by baseline serum clusterin; assay type: in vivo, human
Method: The relationship between serum clusterin levels and the duration of individual survival was evaluated during a phase 1-2 study of weekly custirsen plus a gemcitabine/platinum-based regimen in patients with stage IIIB or IV NSCLC. Not all of the patients in this study had baseline levels of clusterin measured. However, starting with N=69 subjects with measured baseline clusterin levels, fitting the Cox proportional hazards (PH) model with baseline clusterin as sole predictor gives p=0.10; the coefficient is positive, so that higher clusterin is associated with increased survival risk. Among the N=55 subjects who also had post-baseline data collected, fitting the same PH model gives p=0.05, again with positive coefficient.
A careful search for possible cutpoints, using all N=69 subjects with baseline clusterin levels, produced 71 μg/mL as a strong candidate.
Among all N=69 subjects with a baseline clusterin level, there were […] with clusterin ≦71 μg/mL (median survival time was 18.8 months), and N=26 subjects with baseline clusterin >71 μg/mL (median survival time was 10.2 months); the log-rank p-value=0.004. Removing the N=14 early discontinuers leaves N=35 subjects with baseline clusterin ≦71 μg/mL (median survival time was 28.7 months), and N=20 subjects with baseline clusterin >71 μg/mL (median survival time was 12.2 months); the log-rank p-value=0.0002.

[1] = in vivo
Method: Three doses of 640 mg custirsen are administered IV during the Loading Dose Period (Days −9 to −1). There is at least one “non-infusion” day between each administration of custirsen (i.e. every other day) during the Loading Dose Period and between the third loading dose of custirsen and Day 1 of Cycle 1. The day prior to Day 1 of Cycle 1 (Day 0) is a “no treatment” day. There are no more than 4 days between the last loading dose and Day 1 of Cycle 1. A common schedule is to give the three loading doses of custirsen on Monday, Wednesday and Friday with Day 1, Cycle 1 starting on the following Monday. Up to nine days are allowed for completing the three loading doses prior to Day 0 to account for clinic visits, weekends, and holidays. Subjects receive each dose of custirsen as a 2 hour infusion.

clusterin = conditions: broad range of studies (Miyake et al. 2005); cited from earlier work
[2] = test system: cancerous human prostate, breast, ovarian, lung, renal, bladder, and melanoma cells; conditions: broad range of studies (Miyake et al. 2005); cited from earlier work
[3] = cited from earlier work
NSCLC = conditions: 2nd line setting, from reports; cited from earlier work
CYP3A4 = CYP3A4 (Homo sapiens, UniProt P08684); conditions: cited from earlier work
CYP3A4, sequence (P08684 whole entry): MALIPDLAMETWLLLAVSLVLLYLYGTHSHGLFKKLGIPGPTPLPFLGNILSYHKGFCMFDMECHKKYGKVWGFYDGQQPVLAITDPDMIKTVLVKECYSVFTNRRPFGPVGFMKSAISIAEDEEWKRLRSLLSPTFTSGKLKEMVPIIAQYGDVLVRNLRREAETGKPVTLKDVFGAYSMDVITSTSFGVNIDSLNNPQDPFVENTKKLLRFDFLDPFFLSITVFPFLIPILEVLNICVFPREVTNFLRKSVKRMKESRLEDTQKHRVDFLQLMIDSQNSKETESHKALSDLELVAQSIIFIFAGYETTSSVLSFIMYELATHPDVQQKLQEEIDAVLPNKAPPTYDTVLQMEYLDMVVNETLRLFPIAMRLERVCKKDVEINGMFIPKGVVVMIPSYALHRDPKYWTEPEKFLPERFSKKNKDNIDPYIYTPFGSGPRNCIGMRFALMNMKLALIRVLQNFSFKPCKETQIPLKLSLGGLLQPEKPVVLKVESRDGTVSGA

Row | Compound | median survival time (stage IIIB or IV NSCLC; baseline clusterin >71 μg/mL, N=20, early discontinuers removed) [months] | median survival time (stage IIIB or IV NSCLC; baseline clusterin >71 μg/mL, N=26 of all N=69 subjects) [months] | median survival time (stage IIIB or IV NSCLC; baseline clusterin ≦71 μg/mL, N=35, early discontinuers removed) [months] | median survival time (stage IIIB or IV NSCLC; baseline clusterin ≦71 μg/mL, N=45 of all N=69 subjects) [months] | subjects with grade 1-2 constitutional symptoms (e.g., fever and chills) [1] | expression of clusterin (clusterin) | sensitization of cancer cells to chemotherapy [2] | patients with grade 4 neutropenia (<500 cells/mm^3) ([3]; 60 mg/m^2) [%] | patients with grade 4 neutropenia (<500 cells/mm^3) ([3]; 100 mg/m^2) [%] | patients with neutropenia (<2,000 neutrophils/mm^3) ([3]; 60-100 mg/m^2) | median PFS (NSCLC) | CYP3A4 substrate (CYP3A4)
1 | custirsen: anti-clusterin antisense oligonucleotide CAGCAGCAGAGTCTTCATCAT, phosphorothioate backbone, 2′-O-methoxyethyl at nucleotides 1-4 and 18-21, 5-methylcytosines at 1, 4, 19 (antisense e[5mC]*eA*eG*e[5mC]*dA*dG*dC*dA*dG*dA*dG*dT*dC*dT*dT*dC*dA*eT*e[5mC]*eA*eT; listed as Homo sapiens) | 12.2 | 10.2 | 28.7 | 18.8 | 50-60% | potently reduces | sensitizes |  |  |  |  | 
2 | CC(=O)O[C@@]12CO[C@@H]1C[C@H](O)[C@@]1(C)C(=O)[C@H](O)C3=C(C)[C@@H](OC(=O)[C@H](O)[C@@H](NC(=O)OC(C)(C)C)c4ccccc4)C[C@@](O)([C@@H](OC(=O)c4ccccc4)[C@H]21)C3(C)C [Docetaxel] |  |  |  |  |  |  |  | 75 | 85 | virtually all | about 3 months | substrate

— patent US20130017272A1, “METHOD FOR TREATING NON-SMALL CELL LUNG CANCER” (priority 2011, published 2013)
